Earlier results, collected in patent publication US20060057183A1, “Indwelling stent” (priority 2003, published 2006).

System: human vascular cells
Conditions: Mohacsi et al., J Heart Lung Transplant 1997

## C=CC[C@@H]1/C=C(\C)C[C@H](C)C[C@H](OC)[C@H]2O[C@@](O)(C(=O)C(=O)N3CCCC[C@H]3C(=O)O[C@H](/C(C)=C/[C@@H]3CC[C@@H](O)[C@H](OC)C3)[C@H](C)[C@@H](O)CC1=O)[C@H](C)C[C@@H]2OC [tacrolimus (FK506), Tacrolimus]
  antiproliferative effects on human vascular cells: antiproliferative effects
